Measurements: article PMC7796259, “Evaluation of Ionic Liquids and Ionic Liquids Active Pharmaceutical Ingredients Inhibition in Elastase Enzyme Activity” (Molecules, 2021)
Read-outs that look alike come from different tables or passages of the source. Where a SMILES comes first, the peptide text is derived from it. The star is where a group is joined. MeOSuc = COC(=O)CCC(=O)*; CH2Cl = ClC*

Experiments:
[1] = target: T1, Elastase from porcine pancreas (Sus scrofa, UniProt P00772); assay: Elastase inhibition assay, spectrophotometric (N-succinyl-Ala-Ala-Ala-p-nitroanilide, 405 nm); format: biochemical
T1 construct: purchased Sigma-Aldrich; host or cells: porcine pancreas (tissue-derived commercial powder)
Method: In order to evaluate the effect of these compounds (ILs and IL-APIs), an enzymatic reaction based on the conversion of the substrate N-succinyl-Ala-Ala-Ala-p-nitroaniline to succinyl-Ala-Ala-Ala and p-nitroaniline by the enzyme elastase was performed. The enzyme activity is determined by the formation of p-nitroaniline, the chromogenic compound resulted from the reaction. Substrate degradation was continuously monitored in the spectrophotometer by measuring increasing absorbance at 405 nm.
The EC50 values for each IL were calculated as the inhibitory concentration causing a 50% decrease in Elastase activity. The EC50 values were automatically calculated, using GraphPad prism8 software.
All the reagents (HEPES buffer, N-succinyl-Ala-Ala-Ala p-nitroanilide, Elastase and acetate buffer) were added sequentially in eppendorf, being the final volume equal to 250 µL. So, in each eppendorf it was added 137.5 µL of HEPES buffer, 10 µL of N-succinyl-Ala-Ala-Ala p-nitroanilide substrate, 30 µL of elastase, 70 µL of acetate buffer, 2.5 µL of DMSO. In inhibitory assays was 87.5 µL of HEPES buffer, 10 µL of N-succinyl-Ala-Ala-Ala p-nitroanilide substrate, 30 µL of elastase, 70 µL of acetate buffer, 2.5 µL of DMSO, and 50 µL of IL/IL-APIs.
Next, the eppendorf was placed inside the thermostatic bath at 37 °C for 10 min.
After 10 min, the reaction product was measured in spectrophotometer at 405 nm.
All assays were performed in batch mode. Thus, the different reagents were placed manually in an eppendorf at the desired concentrations and volumes. After, they were placed in a thermostatic bath where the reaction temperature was regulated for the desired period. The succinyl-Ala-Ala-Ala and p-nitroaniline result from the cleavage of the substrate N-succinyl-Ala-Ala-Ala-p-nitroaniline by porcine elastase enzyme. The enzyme activity was determined by monitoring the chromogenic compound, p-nitroaniline, at 405 nm. All results of ILs and IL-APIs were obtained in duplicate.

[2] = target: carboxylesterase; conditions: read-out: EC50 for carboxylesterase; compared with elastase values; cited from earlier work
[3] = IL-APIs, aqueous solutions, 37 °C, 10 min, substrate 100 µM, duplicate, read-out: EC50 (µM) ± SD

T1 sequence (P00772 27-266): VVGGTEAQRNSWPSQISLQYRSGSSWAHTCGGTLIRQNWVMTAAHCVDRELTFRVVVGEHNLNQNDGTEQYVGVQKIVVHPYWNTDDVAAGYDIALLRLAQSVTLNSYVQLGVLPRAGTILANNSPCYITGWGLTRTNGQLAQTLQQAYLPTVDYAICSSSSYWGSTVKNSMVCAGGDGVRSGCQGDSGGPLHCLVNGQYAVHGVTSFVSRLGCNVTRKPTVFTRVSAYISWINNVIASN

Row | Compound | EC50 [1, 3] [µM] | also measured
1 | CC(C)(C)CC(C)(C)c1ccc(OCCOCC[N+](C)(C)Cc2ccccc2)cc1.O=S(=O)([N-]S(=O)(=O)C(F)(F)F)C(F)(F)F [Benzethonium bistriflimide] | > 1000 | 
2 | O=S(=O)(NS(=O)(=O)C(F)(F)F)C(F)(F)F [Lithium bistriflimide] | 209 ± 12 | 
3 | COC(=O)CCC(=O)N[C@@H](C)C(=O)N[C@@H](C)C(=O)N1CCC[C@H]1C(=O)N[C@H](C(=O)CCl)C(C)C [MeOSuc-Ala-Ala-Pro-Val-chloromethylketone, reference compound] (MeOSuc-AAPV-CH2Cl) |  | EC50 ([1]; ILs and positive control, aqueous solutions, 37 °C, 10 min, substrate 100 µM, duplicate, read-out: EC50 (mM) ± SD): 470 ± 50 µM
4 | O=C([O-])c1ccccc1O.[Na+] [Sodium salicylate, reference compound] |  | EC50 ([1]; read-out: EC50 (µM) ± SD): 124 ± 4 µM; EC50 [2]: 116.99 ± 0.02 µM
5 | CCCC[P+](C)(CCCC)CCCC [Tributylmethylphosphonium salicylate] | > 200 | 
6 | CCCCC(CC)COC(=O)CC(C(=O)OCC(CC)CCCC)S(=O)(=O)[O-].CCCCCCCCCCCCCC[P+](CCCCCC)(CCCCCC)CCCCCC [Trihexyltetradecylphosphonium docusate] | > 700 | 
7 | CCCCCCCCCCCCCC[P+](CCCCCC)(CCCCCC)CCCCCC [Trihexyltetradecyphosphonium chloride] | > 100 | 
8 | Benzalkonium salicylate | 230 ± 20 | 
9 | Benzethonium docusate | > 200 | 
10 | Benzethonium salicylate | > 500 | 
